Reference: ChEMBL document CHEMBL1146812 (Bioorg Med Chem Lett, 2004)
pEC50, pKi: −log10 of the molar value.

Legend:
[1] = target: Melatonin receptor type 1A (Homo sapiens, UniProt P48039); experiment: Binding affinity against human Melatonin receptor type 1A by using 2-[125I]iodomelatonin as radioligand
[2] = target: T1, Melatonin receptor type 1B (Homo sapiens, UniProt P49286); experiment: Binding affinity against human Melatonin receptor type 1B by using 2-[125I]iodomelatonin as radioligand
T1 sequence (P49286 whole entry): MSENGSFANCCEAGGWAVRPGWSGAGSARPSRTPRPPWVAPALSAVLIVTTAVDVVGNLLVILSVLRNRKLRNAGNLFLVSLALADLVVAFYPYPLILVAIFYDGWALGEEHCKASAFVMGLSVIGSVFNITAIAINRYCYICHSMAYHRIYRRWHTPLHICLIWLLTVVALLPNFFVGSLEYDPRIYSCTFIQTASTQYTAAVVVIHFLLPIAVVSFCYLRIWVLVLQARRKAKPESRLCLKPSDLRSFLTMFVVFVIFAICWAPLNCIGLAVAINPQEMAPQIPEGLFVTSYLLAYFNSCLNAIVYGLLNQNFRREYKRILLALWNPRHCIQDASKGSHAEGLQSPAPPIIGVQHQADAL

[3] = target: Melatonin receptor type 1B (Homo sapiens) (UniProt P49286); experiment: Intrinsic activity against human melatonin receptor (MT)
[4] = target: Melatonin receptor type 1B (Homo sapiens) (UniProt P49286); experiment: Agonist activity for its ability to inhibit forskolin-stimulated cAMP accumulation against MT2 receptor
Melatonin receptor [5] = target: T2, Melatonin receptor (Homo sapiens, UniProt P48039+P49286); experiment: Intrinsic activity against human melatonin receptor (MT); type: protein assay
T2 sequence (P48039 whole entry, looked up, one chain of several): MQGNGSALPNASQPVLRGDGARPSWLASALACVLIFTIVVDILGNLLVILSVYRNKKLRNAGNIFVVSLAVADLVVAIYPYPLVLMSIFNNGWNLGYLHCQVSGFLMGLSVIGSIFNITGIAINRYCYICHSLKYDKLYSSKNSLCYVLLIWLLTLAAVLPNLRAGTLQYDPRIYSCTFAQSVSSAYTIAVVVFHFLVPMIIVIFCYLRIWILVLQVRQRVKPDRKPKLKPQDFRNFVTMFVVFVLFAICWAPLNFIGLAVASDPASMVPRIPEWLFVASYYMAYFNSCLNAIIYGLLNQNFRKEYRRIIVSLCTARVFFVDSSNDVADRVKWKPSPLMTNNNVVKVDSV

Melatonin receptor [6] = target: T2, Melatonin receptor; experiment: Agonist activity for its ability to inhibit forskolin-stimulated cAMP accumulation against MT1 receptor; type: functional

Chain of Melatonin receptor type 1A (P48039 whole entry): as the sequence (P48039 whole entry, looked up, one chain of several) above

| pKi [1] | pKi [2] | Activity [3] | pEC50 [4] | Activity (Melatonin receptor [5]) | EC50 (Melatonin receptor [6]) | SMILES |
| --- | --- | --- | --- | --- | --- | --- |
| 8.09 | 9.00 |  |  |  |  | CCCC(=O)NCCCc1cccc2nc(CC)oc12 |
| 8.64 | 8.66 |  |  |  |  | CCCC(=O)NCCCc1cccc2nc(C)oc12 |
| 9.20 | 7.66 |  |  |  |  | O=C(NCCCc1cccc2nc(CCCCc3ccccc3)oc12)C1CC1 |
| 8.89 | 7.80 |  |  |  |  | CC(=O)NCCCc1cccc2nc(CCCCc3ccccc3)oc12 |
| 7.22 | 7.54 |  |  |  |  | CCCc1nc2cccc(CCCNC(=O)C(C)C)c2o1 |
| 6.78 | 7.66 |  |  |  |  | CCCC(=O)NCCCc1cccc2nc(CCC)oc12 |
| 7.88 | 8.35 |  |  |  |  | CCc1nc2cccc(CCCNC(=O)C(C)C)c2o1 |
| 8.52 | 8.64 |  |  |  |  | Cc1nc2cccc(CCCNC(=O)C(C)C)c2o1 |
| 8.05 | 8.64 |  |  |  |  | CCc1nc2cccc(CCCNC(C)=O)c2o1 |
| 9.12 | 7.85 |  |  |  |  | CCC(=O)NCCCc1cccc2nc(CCCCc3ccccc3)oc12 |
| 7.30 | 7.59 |  |  |  |  | CCNC(=O)NCCCc1cccc2nc(C)oc12 |
| 8.55 | 8.55 |  |  | 0.98 | 0.26 nM | CCC(=O)NCCCc1cccc2nc(C)oc12 |

Further lines, the compound ahead of its results:

| SMILES | pKi [1] | pKi [2] | Activity [3] | pEC50 [4] | Activity (Melatonin receptor [5]) | EC50 (Melatonin receptor [6]) |
| --- | --- | --- | --- | --- | --- | --- |
| CC(C)C(=O)NCCCc1cccc2nc(-c3ccccc3)oc12 | 7.06 | 7.24 |  |  |  |  |
| CCCC(=O)NCCCc1cccc2nc(C(C)C)oc12 | 6.92 | 7.80 |  |  |  |  |
| CCCc1nc2cccc(CCCNC(=O)C3CC3)c2o1 | 7.36 | 8.12 |  |  |  |  |
| O=C(NCCCc1cccc2nc(-c3ccccc3)oc12)C1CC1 | 7.64 | 7.42 |  |  |  |  |
| CCCc1nc2cccc(CCCNC(=O)NCC)c2o1 | 6.31 | 7.44 |  |  |  |  |
| CCCc1nc2cccc(CCCNC(C)=O)c2o1 | 6.74 | 7.46 |  |  |  |  |
| Cc1nc2cccc(CCCNC(=O)C3CC3)c2o1 | 9.15 | 8.57 | 0.96 | 9.13 |  |  |
| CCc1nc2cccc(CCCNC(=O)C3CC3)c2o1 | 8.35 | 8.33 |  |  |  |  |
| CCC(=O)NCCCc1cccc2nc(CC)oc12 | 8.46 | 9.00 |  |  |  |  |
| CCCC(=O)NCCCc1cccc2nc(-c3ccccc3)oc12 | 7.22 | 7.77 |  |  |  |  |
| CCCc1nc2cccc(CCCNC(=O)CC)c2o1 | 7.29 | 7.57 |  |  |  |  |
| CCCC(=O)NCCCc1cccc2nc(CCCCc3ccccc3)oc12 | 8.48 | 7.54 |  |  |  |  |
| CC(C)C(=O)NCCCc1cccc2nc(C(C)C)oc12 | 7.40 | 7.06 |  |  |  |  |
| CC(=O)NCCCc1cccc2nc(C(C)C)oc12 | 6.94 | 7.46 |  |  |  |  |
| CCNC(=O)NCCCc1cccc2nc(CC)oc12 | 7.12 | 7.92 |  |  |  |  |
| CCC(=O)NCCCc1cccc2nc(C(C)C)oc12 | 6.85 | 7.82 |  |  |  |  |
| CCC(=O)NCCCc1cccc2nc(-c3ccccc3)oc12 | 7.88 | 8.00 |  |  |  |  |
| CCNC(=O)NCCCc1cccc2nc(-c3ccccc3)oc12 | 6.47 | 7.21 |  |  |  |  |
| CC(=O)NCCCc1cccc2nc(-c3ccccc3)oc12 | 7.40 | 7.05 |  |  |  |  |
| CC(=O)NCCCc1cccc2nc(C)oc12 | 7.62 | 8.28 |  |  |  |  |
| CCC(=O)NCCCc1cccc2ncoc12 | 8.18 | 8.74 |  |  |  |  |
| CCCC(=O)NCCCc1cccc2ncoc12 | 8.00 | 8.43 |  |  |  |  |
| CC(C)C(=O)NCCCc1cccc2nc(CCCCc3ccccc3)oc12 | 8.89 | 7.74 |  |  |  |  |
| CC(=O)NCCCc1cccc2ncoc12 | 7.52 | 8.37 |  |  |  |  |
| CC(C)c1nc2cccc(CCCNC(=O)C3CC3)c2o1 | 7.47 | 6.94 |  |  |  |  |
| CCNC(=O)NCCCc1cccc2nc(C(C)C)oc12 | 6.71 | 7.28 |  |  |  |  |
